SMILES strings stand for the structures. pIC50: −log10 of the molar value.

The first assay deals with neurons induced to differentiate from SCN1A gene deficient human iPS cells. Kind of assay: Test for measuring hyperexcitation suppression activity (spontaneous calcium oscillation frequency). It counts as cell-based. The note with it: Homo sapiens, Neuron; @0.1 μM; read-out: inhibition rate. An excerpt:
Test for Measuring Hyperexcitation Suppression Activity Using Neurons Induced to Differentiate from SCN1A Gene Deficient Human iPS Cells
(1) Induction of Differentiation from Human iPS cells to Neurons
Half of the culture solution was exchanged once every 3 to 4 days.
(2) Fluorescent Calcium Probe Treatment, Addition of Compound, and Evaluation of Intracellular Calcium Concentration
Half of the culture solution was removed on day 60 from induction of differentiation or thereafter. A medium for measurement comprising a fluorescent calcium probe (Molecular Device, product name: FLIPR Calcium 6 Assay Bulk Kit, cat #R8191) was added at an amount equal to the remaining medium. The culture was left standing for 30 minutes and subjected to measurement.
The test compounds were serially diluted with a dimethyl sulfoxide (DMSO) solution so that the final concentration would be 0.1 to 100 μM to prepare a concentrate with a concentration that is 6-fold of the final concentration.
The intensity of fluorescence of a calcium probe was measured over time with FDSS7000EX (Hamamatsu Photonics) to evaluate the change in intracellular calcium concentrations. First, the intensity of fluorescence was measured for 2 minutes. The compound solutions were then added using FDSS7000EX for an additional 8 minute measurement of fluorescence intensity. The frequency of spontaneous calcium oscillation was quantified as an indicator of nerve excitation. With the frequency for 2 minutes before the addition of the compound solutions as 100%, the ratio of frequency for the last 2 minutes after addition of the compound solutions was calculated.
Usually inhibition stands for the percentage by which the read-out fell short of the control. In the case of `O=c1c2cc(F)ccc2nc(Nc2cncc(F)c2)n1-c1ccccc1F` [Example 111, 6-fluoro-3-(2-fluorophenyl)-2-((5-fluoropyridin-3-yl)amino)quinazolin-4(3H)-one], the inhibition at 0.1 µM was 35%.

As to `O=c1c2ccccc2nc(Nc2cccn3cncc23)n1-c1ccccc1` [Example 69, 2-(imidazo[1,5-a]pyridin-8-ylamino)-3-phenylquinazolin-4(3H)-one], the inhibition at 0.1 µM is 39%. As for `Cc1ccccc1-n1c(Nc2cccnc2)nc2ccc(F)cc2c1=O` [Example 107, 6-fluoro-2-(pyridin-3-ylamino)-3-(o-tolyl)quinazolin-4(3H)-one], the inhibition at 0.1 µM amounted to 89%.

With `N#Cc1ccc2nc(Nc3cncc(F)c3)n(-c3ccccc3)c(=O)c2c1` [Example 112, 2-((5-fluoropyridin-3-yl)amino)-4-oxo-3-phenyl-3,4-dihydroquinazoline-6-carbonitrile], the inhibition at 0.1 µM was 32%.

Still in this assay, the particulars now being: Homo sapiens, Neuron; @1 μM; read-out: inhibition rate.
As for `Cn1nccc1-n1c(Nc2cccnc2)nc2ccc(F)cc2c1=O` [Example 150], the inhibition at 1 µM was determined as 26%. Same read-out and setting: with `CN1[C@@H]2CC[C@H]1C[C@H](n1c(Nc3cccnc3)nc3ccccc3c1=O)C2` [Example 76] the figure was 35%; with `C[C@]1(N)CC[C@H](n2c(Nc3cccnc3)nc3ccccc3c2=O)CC1` [Example 73], 86%. On the same count and under the same terms, with `COc1cncc(Nc2nc3ccc(F)cc3c(=O)n2-c2ccccc2)c1` [Example 28] the figure was 32%; with `O=c1c2cc(F)ccc2nc(Nc2cccnc2)n1-c1cccc(Cl)c1` [Example 134], 56%. `CN1CCC[C@H](n2c(Nc3cccnc3)nc3ccccc3c2=O)C1` [Example 71]: the inhibition at 1 µM turned out to be 51%. Consider `O=c1c2cc(Cl)ccc2nc(Nc2cccnc2)n1-c1ccccc1Cl` [Example 15, 6-chloro-3-(2-chlorophenyl)-2-(pyridin-3-ylamino)quinazolin-4(3H)-one], for which the inhibition at 1 µM is 99%. Same read-out and setting: the same measure for `Cc1ccccc1-n1c(Nc2cccnc2)nc2cccc(F)c2c1=O` [Example 120]: 69%.

With `O=c1c2cc(F)ccc2nc(Nc2cc(F)ccn2)n1-c1ccccc1` [Example 127, 6-fluoro-2-((4-fluoropyridin-2-yl)amino)-3-phenylquinazolin-4(3H)-one], the inhibition at 1 µM is 96%. Still for that read-out and setting: with `N#Cc1ccc2nc(Nc3cncc(F)c3)n(-c3ccccc3F)c(=O)c2c1` [Example 113, 3-(2-fluorophenyl)-2-((5-fluoropyridin-3-yl)amino)-4-oxo-3,4-dihydroquinazoline-6-carbonitrile] the figure was 91%; with `Cc1ccnc(Nc2nc3ccc(F)cc3c(=O)n2-c2ccccc2)c1` [Example 125], 29%. For `CN1[C@@H]2CC[C@H]1C[C@@H](n1c(Nc3cccnc3)nc3ccccc3c1=O)C2` [Example 79], the inhibition at 1 µM stood at 47%. For the compound `CC(C)n1c(Nc2cccnc2)nc2ccc(F)cc2c1=O` [Example 59], the inhibition at 1 µM turned out to be 39%.

On to `O=c1c2cccc(F)c2nc(Nc2cccnc2)n1-c1ccccc1` [Example 115], for which the inhibition at 1 µM was found to be 81%. Same read-out and setting: with `O=c1c2cc(F)ccc2nc(Nc2cccnc2)n1[C@H]1CC[C@H](O)CC1` [Example 180] the figure was 35%; with `O=c1c2cc(F)ccc2nc(Nc2ccc(F)cn2)n1-c1ccccc1` [Example 128], 69%; with `Cc1ccc(Nc2nc3ccc(F)cc3c(=O)n2-c2ccccc2)cn1` [Example 30], 67%.

The same assay, now with this note: Homo sapiens, Neuron; @10 μM; read-out: inhibition rate.
With `CN1CC2(CC(n3c(Nc4cccnc4)nc4ccccc4c3=O)C2)C1` [Example 83], the inhibition at 10 µM amounted to 96%. Same read-out and setting: the same measure for `CN1CCC(Cn2c(Nc3cccnc3)nc3ccc(F)cc3c2=O)CC1` [Example 156]: 95%. With `O=c1c2cc(F)ccc2nc(Nc2cccnc2)n1-c1cncs1` [Example 160], the inhibition at 10 µM was 58%. Same read-out and setting: with `O=c1c2cc(Cl)ccc2nc(Nc2ccc(F)cn2)n1-c1ccccc1` [Example 25] the figure was 82%; with `O=c1c2cc(Cl)ccc2nc(Nc2nncs2)n1-c1ccccc1` [Example 229], 5%; with `Cc1ncccc1Nc1nc2ccc(F)cc2c(=O)n1-c1ccccc1` [Example 29], 82%. The same measure, in the same setting: with `C[C@]1(N)CC[C@H](n2c(Nc3cccnc3)nc3ccc(F)cc3c2=O)CC1` [Example 84] the figure was 96%.

As for `O=c1c2cc(F)ccc2nc(Nc2cnsc2)n1-c1ccccc1` [Example 178], the inhibition at 10 µM stood at 76%. Same read-out and setting: with `O=c1c2ccccc2nc(Nc2ccc3cncn3c2)n1-c1ccccc1` [Example 68] the figure was 100%; with `CN1[C@@H]2CC[C@H]1C[C@@H](n1c(Nc3cccnc3)nc3ccc(F)cc3c1=O)C2` [Example 80], 49%; with `O=c1c2cc(F)ccc2nc(Nc2cccnc2)n1C12CCN(CC1)CC2` [Example 72], 100%. With `CN1CCC[C@H](n2c(Nc3cccnc3)nc3ccc(F)cc3c2=O)C1` [Example 81], the inhibition at 10 µM was found to be 35%. For the compound `CC(C)c1ccc(Nc2nc3ccc(Cl)cc3c(=O)n2-c2ccccc2)cn1` [Example 44], the inhibition at 10 µM turned out to be 81%. Regarding `O=c1c2cc(Cl)ccc2nc(Nc2ccc3nncn3c2)n1-c1ccccc1` [Example 16], the inhibition at 10 µM worked out at 42%.

Consider `O=c1c2cc(F)ccc2nc(Nc2cccnc2)n1C1(c2ccccc2)CNC1` [Example 175], for which the inhibition at 10 µM was 25%. Take `COc1cncc(-n2c(Nc3cccnc3)nc3ccc(F)cc3c2=O)c1` [Example 185]: the inhibition at 10 µM stood at 31%. Still for that read-out and setting: the same measure for `O=c1c2cc(F)ccc2nc(Nc2cccnc2)n1Cc1ccccc1` [Example 151]: 2%; for `O=c1c2cc(F)ccc2nc(Nc2cccnc2)n1CCN1CCCC1` [Example 159]: 56%. On to `C[C@]1(N)CC[C@@H](n2c(Nc3cccnc3)nc3ccccc3c2=O)CC1` [Example 74], for which the inhibition at 10 µM was 100%. Take `O=c1c2cc(F)ccc2nc(Nc2cccnc2)n1CCc1ccccc1` [Example 158]: the inhibition at 10 µM turned out to be 100%.

Staying with this assay, now noted: Homo sapiens, Neuron; @100 μM; read-out: inhibition rate.
On to `COc1cccc2nc(Nc3cccnc3)n(-c3ccccc3)c(=O)c12` [Example 92], for which the inhibition at 100 µM is 38%. The same measure, in the same setting: the same measure for `CO[C@H]1CN(C)CC[C@H]1n1c(Nc2cccnc2)nc2ccc(F)cc2c1=O` [Example 183]: 13%; for `O=c1c2c(F)cccc2nc(Nc2cncc(F)c2)n1-c1ccccc1` [Example 117]: 71%. On the same count and under the same terms, with `COc1cccc2c(=O)n(-c3ccccc3)c(Nc3cccnc3)nc12` [Example 116] the figure was 59%; with `O=c1c2cc(F)ccc2nc(Nc2cccnc2)n1CCO` [Example 173], 6%. For the compound `O=c1c2cc(F)ccc2nc(Nc2cccnc2)n1CCC(F)(F)F` [Example 171], the inhibition at 100 µM is 100%. Still for that read-out and setting: with `Nc1ccc2nc(Nc3cccnc3)n(-c3ccccc3)c(=O)c2c1` [Example 177] the figure was 100%; with `Cc1cccnc1Nc1nc2ccc(F)cc2c(=O)n1-c1ccccc1` [Example 136], 5%; with `CN1CC[C@@H](n2c(Nc3cccnc3)nc3ccc(F)cc3c2=O)C1` [Example 97], 100%.

Staying with this assay, now noted: Neuron; SCN1A gene deficient human iPS cell-derived neurons; FLIPR Calcium 6, FDSS7000EX; read-out: IC50 (50% inhibitory concentration, frequency of spontaneous calcium oscillation).
For the compound `COc1ncccc1Nc1nc2ccc(Cl)cc2c(=O)n1-c1ccccc1` [Example 10, 6-chloro-2-((2-methoxypyridin-3-yl)amino)-3-phenylquinazolin-4(3H)-one], the pIC50 was 6.52. The same measure, in the same setting: with `C[C@H]1CC[C@H](n2c(Nc3cccnc3)nc3ccc(F)cc3c2=O)CC1` [Example 201] the figure was less than 5.00; with `Cc1cnc2nc(Nc3cccnc3)n(-c3ccccc3)c(=O)c2c1` [Example 202], less than 5.00. In the case of `O=c1c2cc(Cl)ccc2nc(Nc2nnco2)n1-c1ccccc1` [Example 228], the pIC50 was less than 5.00. The same measure, in the same setting: with `COc1cncc(Nc2nc3ccc(Cl)cc3c(=O)n2-c2ccccc2)c1` [Example 218] the figure was less than 5.00; with `Cc1ccccc1-n1c(Nc2cccnc2)nc2ccc(S(C)(=O)=O)cc2c1=O` [Example 214], less than 4.00; with `O=c1c2cc(Cl)ccc2nc(Nc2cn[nH]c2)n1-c1ccccc1` [Example 217], less than 5.00. On the same count and under the same terms, with `O=c1c2cc(Cl)ccc2nc(Nc2ncccn2)n1-c1ccccc1` [Example 7] the figure was 5.19; with `Cc1noc(C)c1-n1c(Nc2cccnc2)nc2ccc(F)cc2c1=O` [Example 195], less than 5.00; with `O=c1c2cc(F)ccc2nc(Nc2cccnc2)n1C1(c2ccccn2)CC1` [Example 206], less than 4.00. Take `O=c1c2cc(F)ccc2nc(Nc2ccncn2)n1-c1ccccc1` [Example 20]: the pIC50 was 5.31. Regarding `CN(C)c1cncc(Nc2nc3ccc(F)cc3c(=O)n2-c2ccccc2)c1` [Example 216], the pIC50 was less than 4.00. With `O=c1c2cc(F)ccc2nc(Nc2csc(Cl)c2)n1-c1ccccc1` [Example 209], the pIC50 is less than 4.00.
